Measured values taken from article PMC8016166, “Identification of a Potent and Selective 5-HT1A Receptor Agonist with In Vitro and In Vivo Antinociceptive Activity” (ACS Chemical Neuroscience, 2020).

Tests used:
Hep-G2 cells = assay: Hep-G2 cell viability (MTT assay); assay type: cell-based; details: 72 h; for hepatic cell viability vs untreated control cells: 50 μM; for hepatic cell viability (toxicity): concentrations ≤10 μM
Experimental: HEK293 cells with stable expression of human 5-HT1A, 5-HT6, and 5-HT7b (prepared with the use of Lipofectamine 2000) were grown in Dulbecco’s Modified Eagle Medium (DMEM) containing 10% dialyzed fetal bovine serum (FBS) and 500 μg/mL G418 sulfate. Liver hepatocellular carcinoma Hep-G2 cells were cultured in DMEM enriched by 10% FBS, 2 mM L-glutamine, 100 IU/mL penicillin, and 50 μg/mL streptomycin (all from Sigma-Aldrich Corporation, a division of Merck KGaA, Darmstadt, Germany). Cell lines were maintained at 37 °C in a humidified atmosphere with 5% CO2. For membrane preparation, the cells were subcultured in 150 cm^2 flasks, grown to 90% confluence, washed twice with prewarmed to 37 °C phosphate buffered saline (PBS), and pelleted by centrifugation (200g) in PBS containing 0.1 mM EDTA and 1 mM dithiothreitol. Prior to membrane preparation, pellets were stored at −80 °C.
Liver hepatocellular carcinoma Hep-G2 cells were seeded in 96-well plates (1 × 10^4 cells/well) and maintained under continuous stimulation with increasing concentrations (nM−μM range) of the tested compounds. 200 mM ethanol and 5% Triton X-100 (Sigma-Aldrich Corporation) served as controls. The viability of cells was assessed by MTT assay as previously described.[66],[67] The absorbance was detected by a Victor3 plate reader (PerkinElmer Inc., Waltham, MA, USA) and represented by box and whiskers plot, as a measure of cell viability. Differences between values from treated and untreated cells were evaluated by two-ANOVA followed by Dunnett’s multiple comparison test (p < 0.05).

male Albino Swiss mice = assay: Hot plate test; assay type: in vivo, mouse
Experimental: The experiments were performed on male Albino Swiss mice (20–25 g), where 4 animals were kept in a cage, in an environmentally controlled room (ambient temperature 22 ± 1 °C; relative humidity 50–60%; 12 h light/dark cycle, lights on at 8:00). Standard laboratory food (LSM, Agropol-Motycz, Poland) and filtered water were available ad libitum. All the behavioral experiments were carried out in accordance with the European Community Council Directive for Care and Use of Laboratory Animals (2010/63/EU) (2016), and approved by the Local Ethics Committee for Animal Experimentation. The tested compounds were administered intraperitoneally (i.p.), dissolved in DMSO (its final concentration of 0.1%), suspended in 0.5% Tween-80 (1–2 drops) and then diluted using an aqueous solution of 0.5% methylcellulose (tylose). All the compounds were given in a manner generally accepted in experimental pharmacology, in a volume of 10 mL/kg body weight. The animals were weighed immediately before injection. Each group consisted of 8 members. The control animals received an equivalent volume of the solvent at the respective time before the tests. […] Between injections, the mice were provided with stable living conditions and unrestricted access to food and water. All the experiments were conducted in the light phase between 09.00 a.m. and 05.00 p.m. For the hot plate test, the mice were placed on a hot plate (Ugo Basile Srl, Gemonio, Italy) maintained at a constant temperature of 55 °C with a cutoff time of 20 s. The baseline latency response (in seconds), induced by the thermal stimulus, with the mouse lifting either of the hind paws or jumping with all four feet off the hot plate, before administration of a compound was measured first. The animals were then administered with compounds and the post-treatment latency responses were determined at 30 min time intervals up to 180 min after drug injection. The antinociceptive effects of the compounds were expressed as a percentage of maximum possible effect (%MPE), which was calculated according to the following equation: [(T1 – T0)/(20 – T0)] × 100, where T0 and T1 are the predrug and post-drug latencies for hot plate response, respectively.[37],[38] The results were calculated using the one-way analysis of variance (ANOVA) followed by Bonferroni’s post hoc test. The results are presented as the means ± standard errors of mean (S.E.M.). The level of p < 0.05 was considered statistically significant. All the figures were prepared using the GraphPad Prism ver. 5.00 for Windows (GraphPad Software, San Diego, CA, USA), www.graphpad.com.

5-HT1AR [1] = target: 5-HT1AR; design: method as in PMID 30043643; details: previous work; cited from earlier work
α1 = system: α1; design: method as in PMID 30043643; details: previous work; cited from earlier work
5-HT1AR [2] = system: 5-HT1AR; design: method as in PMID 30043643; details: previous work, cited from earlier work; for potency pD2: agonist, GTPγS assay

Structure (SMILES) | hepatic cell viability vs untreated control cells (Hep-G2 cells) | hepatic cell viability (toxicity) (Hep-G2 cells) | 5-HT1AR affinity pKi (5-HT1AR [1]) | selectivity 5-HT1A/α1 (α1) | potency pD2 (5-HT1AR [2]) | other results
Cn1cncc1-c1ccccc1OCCNC[C@@H]1COC(c2ccccc2)(c2ccccc2)O1 [(R)-2, N-((2,2-Diphenyl-1,3-dioxolan-4-yl)methyl)-2-(2-(1-methyl-1H-imidazol-5-yl)phenoxy)ethan-1-ammonium hydrogenoxalate] | negatively impacted cell viability | very low toxicity |  |  |  | 
c1ccc(C2(c3ccccc3)OCC(CNCCOc3ccccc3-c3ccncc3)O2)cc1 (racemic) [rac-1, N-[(2,2-diphenyl-1,3-dioxolan-4-yl)methyl]-2-[2-(pyridin-4-yl)phenoxy]ethan-1-ammonium hydrogenoxalate] |  |  | 9.2 | 135 | 8.83 | MPE values in the hot plate test (male Albino Swiss mice; mice, 5, 10 and 20 mg/kg i.p., 30-180 min): did not reveal any significant change in the MPE values
Cn1cncc1-c1ccccc1OCCNC[C@H]1COC(c2ccccc2)(c2ccccc2)O1 [(S)-2, N-((2,2-Diphenyl-1,3-dioxolan-4-yl)methyl)-2-(2-(1-methyl-1H-imidazol-5-yl)phenoxy)ethan-1-ammonium hydrogenoxalate] | negatively impacted cell viability |  |  |  |  | hepatic cell viability (Hep-G2 cells; 10 and 5 μM): decreased cell viability
Cn1cncc1-c1ccccc1OCCNCC1COC(c2ccccc2)(c2ccccc2)O1 (racemic) [rac-2, N-((2,2-diphenyl-1,3-dioxolan-4-yl)methyl)-2-(2-(1-methyl-1H-imidazol-5-yl)phenoxy)ethan-1-ammonium hydrogenoxalate] |  |  | 8.98 | 132 | 5.46 | relative effectiveness (Emax) (5-HT1AR [2]): 240%
c1ccc(C2(c3ccccc3)OC[C@H](CNCCOc3ccccc3-c3ccncc3)O2)cc1 [(S)-1, N-[(2,2-Diphenyl-1,3-dioxolan-4-yl)methyl]-2-[2-(pyridin-4-yl)phenoxy]ethan-1-ammonium hydrogenoxalate] | no effect | very low toxicity |  |  |  | reaction time to the thermal stimulus (hot plate) (male Albino Swiss mice; mice, 5 mg/kg i.p.): a significant effect was only noted at 120 and 180 min; reaction time to the thermal stimulus (hot plate) (male Albino Swiss mice; mice, 10 mg/kg i.p., 30, 90, 120 and 180 min): significantly increased; reaction time to the thermal stimulus (hot plate) (male Albino Swiss mice; mice, 20 mg/kg i.p., 30, 90, 120 and 180 min): significantly increased the reaction time; antinociceptive effect in hot plate with WAY-100635 (male Albino Swiss mice; mice, (S)-1 10 mg/kg + WAY-100635 3 mg/kg, at 30 min): significantly reversed the antinociceptive effect
c1ccc(C2(c3ccccc3)OC[C@@H](CNCCOc3ccccc3-c3ccncc3)O2)cc1 [(R)-1, N-[(2,2-Diphenyl-1,3-dioxolan-4-yl)methyl]-2-[2-(pyridin-4-yl)phenoxy]ethan-1-ammonium hydrogenoxalate] | negatively impacted cell viability | very low toxicity |  |  |  | 
